# Assay results reported in patent US8338565B2, “Macrocyclic compounds for inhibition of tumor necrosis factor alpha” (Ensemble Therapeutics Corporation, priority 2008, dated 2012).
# Legend:
# [1] = molecular target: T1, TNFα / TNFα receptor (TNFα R1/Fc) (Homo sapiens, UniProt P01375); experiment: Inhibition of binding of TNFα to the TNFα receptor (plate ELISA competition); conditions: Activity (IC50, inhibition of TNFα binding to TNFα R1/Fc), Table 2
# T1 construct: purchased R&D Systems
# Outline: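 Compound dilutions were preincubated 30 min at RT with 8.33 nM TNFα R1/Fc in PBST with 2% DMSO, then added to wells coated with 15 nM TNFα for 30 min. Bound receptor was detected with HRP anti-human Fc and TMB, read as A450.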
# [2] = test system: TNF-α (degradation of IkB in HeLa cells or A431 cells); experiment: Human cell-based assay: inhibition of TNF-α induced degradation of IkB
# [3] = test system: rat paw edema model; experiment: Rat paw edema model (carrageenan), anti-inflammatory activity; format: in vivo, Sprague-Dawley (SD) rats; conditions: Table 8; 3 mg/kg PO; 4 h post-carrageenan
# [4] = test system: rat paw edema model; experiment: as above; format: in vivo, Sprague-Dawley (SD) rats
# Experimental: Compounds 3, 4, 10 and 202 were tested in a rat paw edema model to determine anti-inflammatory activity. Seven groups (one for Vehicle A [15 mL PEG400, 3 mL Graves Grain alcohol (190 proof), 1.8 mL dimethylacetamide and 10.2 mL deionized water] alone as a negative control, one for Vehicle B [0.1M NaHCO3] alone as a negative control, one for each of the four test compounds dissolved in Vehicle A, and one for indomethacin dissolved in Vehicle B as a positive control), each group containing six Sprague-Dawley (SD) rats (180-200 g) randomized by weight. Initial paw volumes were measured by placing the right hind limb of the rat up to the top of the hock in a beaker of water sitting on a scale that had been tared to zero and recording the readout.
# Rats were pre-treated with either i) one of the test compounds, or ii) a positive or negative control. Vehicle A alone and test compound dissolved in Vehicle A (Compound 3-1.0 mg/kg; Compound 4-0.4 mg/kg; Compound 10-0.5 mg/kg; Compound 202-0.3 mg/kg) were administered by intravenous injection. Vehicle B alone and indomethacin (5 mg/kg in 0.1M NaHCO3) was administered by intraperitoneal injection. Thirty minutes after this pretreatment, rats were anesthetized and injected with 0.1 mL of carrageenan (10 mg/mL in water) in the subplantar region of the right hind foot using a ½ inch 26 gauge needle attached to a 1 cc syringe.
# At 2, 4 and 6 hours post-carrageenan injection, the right hind foot of each rat was measured for paw volume as described above.
# We next investigated the effect of varying intravenous doses of Compound 202 (0.05, 0.10, 0.30, and 1.00 mg/kg) in the same model using the same protocol (6 rats per group). […] We also investigated the affect of oral dosing (10 mg/kg) of Compound 202 in the same model. For oral dosing, a 2.5 mg/mL suspension of Compound 202 was prepared in Vehicle A. Rats were orally administered 4 mL/kg of that suspension.
# T1 sequence (P01375 77-233 limits assumed, species assumed): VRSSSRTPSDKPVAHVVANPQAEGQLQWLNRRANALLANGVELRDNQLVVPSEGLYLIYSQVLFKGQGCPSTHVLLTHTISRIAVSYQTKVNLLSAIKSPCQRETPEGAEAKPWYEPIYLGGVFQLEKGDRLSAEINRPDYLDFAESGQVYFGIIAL
smiles,measurement,setting,value
O=C1COc2ccc(cc2)C[C@@H](C(=O)NCS(=O)(=O)O)NC(=O)[C@H](CCc2ccccc2)NC(=O)[C@@H](Cc2ccc(-c3ccccc3)cc2)NC(=O)[C@H](Cc2cccs2)N1 [Compound 482],IC50,[1],< 10 µM
same,inhibition at 5 µM,"[2]; read-out: Inhibition at Various Compound Concentrations, 5 μM",10 to 50%
same,inhibition at 10 µM,"[2]; read-out: Inhibition at Various Compound Concentrations, 10 μM",10 to 50%
same,Change in Paw Volume,[3],1.18 ± 0.10 mL
same,Change in Paw Volume,"[4]; Table 5, 1 mg/kg IV, 2 h post-carrageenan",0.73 ± 0.19 mL
same,Change in Paw Volume,"[4]; Table 5, 1 mg/kg IV, 4 h post-carrageenan",0.99 ± 0.34 mL
same,Change in Paw Volume,"[4]; Table 5, 1 mg/kg IV, 6 h post-carrageenan",0.86 ± 0.27 mL
same,Change in Paw Volume,"[4]; Table 8, 3 mg/kg PO, 2 h post-carrageenan",1.13 ± 0.15 mL
same,Change in Paw Volume,"[4]; Table 8, 3 mg/kg PO, 6 h post-carrageenan",1.14 ± 0.10 mL
